These results are taken from patent publication US20260226031A1, “NOVEL COMPOUNDS” (NRG THERAPEUTICS LTD., priority 2023, published 2026).

Structures are written as SMILES.

The test system of assay [1] is mPTP. Kind of assay: mPTP activity (Ca2+ retention) assay in isolated rat liver mitochondria. The class given is biochemical. The conditions noted are these: isolated rat liver mitochondria; Fluo5N fluorescence at 10 min after CaCl2 (75 μM) bolus; DMSO 0%, 5 μM cyclosporin A 100% inhibition. From the text:
Pharmacological inhibition or modulation of the mPTP can be measured in well characterised ‘Ca^2+ retention’ assays performed in isolated mitochondria. In vitro, isolated mitochondria rapidly sequester exogenous Ca^2+ until the intramitochondrial Ca^2+ concentration reaches the threshold for mPTP activation. Once the pore is activated, mitochondrial integrity is compromised and the stored Ca^2+ is released. The distribution of Ca^2+ between extra- and intra-mitochondrial compartments can be measured in real time with the use of membrane-impermeant Ca^2+ sensitive fluorescent dyes. Depending on the configuration of the assay, inhibition or modulation of the mPTP either delays the opening of the pore or increases the concentration of Ca^2+ required to induce mPTP opening.
MPTP activity was measured in mitochondria freshly isolated from female Sprague Dawley (250 to 300 gram) rat livers using the following method. Cervical dislocation was performed on the rat. The liver was then perfused in-situ with ~40 ml cold Dulbecco's Phosphate Buffered Saline (DPBS) prior to dissection and transferred into 30 ml Isolation Buffer (250 mM Sucrose, 10 mM KCl, 1 mM EGTA, 1 mM EDTA, 25 mM HEPES, adjusted to pH 7.5 with 1M NaOH). Each lobe of the liver was then removed from the buffer, minced using tweezers and a scalpel into ~5 mm pieces then transferred into a 50 ml Potterton dounce homogenization tube on ice containing 30 ml ice-cold centrifugation buffer (300 mM Trehalose, 25 mM HEPES, 1 mM EGTA, 1 mM EDTA, 10 mM KCl, adjusted to pH 7.5 with 1M NaOH and supplemented with 0.1% bovine serum albumin (BSA) and complete protease inhibitor cocktail (one tablet of inhibitor per 50 mls of buffer). Homogenisation was carried out using a Teflon® pestle at 1800 rpm. The slurry was centrifuged at 800 g for 10 min at 4° C., then the supernatant centrifuged at 10,000 g for 10 min. The pellet was washed once with FLIPR assay buffer (75 mM Mannitol, 25 mM Sucrose, 5 mM Potassium Phosphate Monobasic, 20 mM Tris base, 100 mM KCl, 0.1% BSA adjusted to pH 7.4 with 5M HCl) centrifuged again, then resuspended in FLIPR assay buffer to a concentration of 8.8 mg/ml protein.
Tested compounds (10 mM stock in DMSO) were serially diluted in DMSO in half log steps to generate 10 test concentrations (final concentrations in assay 30 μM to 1 nM). An intermediate dilution of 5 μl DMSO samples into 247 μl FLIPR assay buffer was carried out prior to transfer of 5 μl into duplicate wells of a 384 well polypropylene assay plate. Control wells were 0.5% (v/v) DMSO and 5 μM cyclosporin A.
A stock mitochondria/Fluo5N assay solution was prepared in 5.6 ml FLIPR assay buffer (at RT) supplemented with succinate disodium salt (10 mM), rotenone (1 μM), Fluo5N pentapotassium salt (2 μM) and 1 ml mitochondria suspension, then transferred (15 μl) into the assay plate containing test compounds and incubated for 10 min at RT. Assay plates were processed for fluorescence detection on either a FLIPR Tetra (Molecular Devices) or CLARIOstar (BMG) plate reader. For kinetic fluorescence detection on the FLIPR, dye fluorescence was measured every 3 sec for a total of 10 min. After 12 sec, a 2.5 μl bolus of CaCl2 (75 μM) was added from a source plate containing 675 μM CaCl2 in FLIPR assay buffer. Alternatively, the 2.5 μl addition of CaCl2 was performed using a Viaflow 384, plates were incubated at RT for 10 min, and dye fluorescence measured after 10 min on the CLARIOstar plate reader. pIC50 values for tested compounds were calculated using the fluorescence value collected at the 10 min timepoint on either plate reader, with % inhibition calculated using the DMSO control and cyclosporin A values as 0 and 100% respectively.

Assay [2] has as its system mPTP. The assay can be described thus: mPTP activity (Ca2+ retention) assay in isolated rat brain mitochondria. In kind it is biochemical. Conditions: isolated rat brain mitochondria; Fluo5N fluorescence at 10 min after Ca2+ (75 μM) bolus. The method, then:
MPTP activity was measured in brain mitochondria freshly isolated from female Sprague Dawley (250 to 300 gram) rats. Anaesthetised rats were perfused in-situ with ~40 ml cold Dulbecco's Phosphate Buffered Saline (DPBS), then brains dissected and transferred into 30 ml Isolation Buffer (225 mM mannitol, 75 mM sucrose, 1 mM EGTA, adjusted to pH 7.4 with 1M NaOH). The brain was minced using tweezers and a scalpel into ~5 mm pieces then transferred into a 50 ml Potterton Dounce homogenization tube on ice containing 10 ml ice-cold isolation buffer (as above with addition of Complete Protease inhibitor; 1 tablet per 50 ml buffer). Homogenisation was carried out using a Teflon® pestle at 1800 rpm. The slurry was centrifuged at 2000 g for 10 min at 4° C., then the supernatant centrifuged at 12,000 g for 9 min. The pellet was resuspended with a dounce homogeniser in isolation buffer as above but with the addition of 0.02% digitonin, centrifuged at 12,000 g for 11 min and finally resuspended in 5 ml modified isolation buffer (as above but with EGTA reduced to 0.1 mM).
Test compounds were prepared in 384 well polypropylene assay plates as described above for the liver mitochondria assay. A stock mitochondria/Fluo5N assay solution was prepared in 5.6 ml assay buffer (120 mM mannitol, 40 mM MOPS, 5 mM KH2PO4, 60 mM KCl, 10 mM pyruvate, 2 mM malate, 2 mM MgCl2, 20 μM ADP, 1.26 μM oligomycin A, adjusted to pH 7.4) supplemented with Fluo5N pentapotassium salt (2 μM) and 1 ml mitochondria suspension, then transferred (15 μl) into the assay plate containing test compounds and incubated for 10 min at RT. Assay plates were then transferred to a FLIPR Tetra plate reader (Molecular Devices). Dye fluorescence was then measured every 3 sec for a total of 10 min.

In the case of `O=C(c1ccnc(=O)[nH]1)N1CC(c2ccccc2)C2(CCC2)C1` (single isomer, unassigned) [Example 27b, 6-(8-phenyl-6-azaspiro[3.4]octane-6-carbonyl)pyrimidin-2(1H)-one], the “mPTP Rat liver pIC50*” value in the assay with mPTP [1] is reported as below 4.52. Moreover, the “mPTP Rat brain pIC50” value in the assay with mPTP [2] is given as below 4.52.
For `O=C(c1noc(=O)[nH]1)N1CC(c2cccc(F)c2)C2(CCC2)C1` (single isomer, unassigned) [Example 49a, 3-(8-(3-fluorophenyl)-6-azaspiro[3.4]octane-6-carbonyl)-1,2,4-oxadiazol-5(4H)-one], the “mPTP Rat liver pIC50*” value in the assay with mPTP [1] came out at 6.52.
Take `O=C(c1cncc(=O)[nH]1)N1CC(c2ccc(Br)cc2)C2(CCC2)C1` (single isomer, unassigned) [Example 29b, 6-(8-(4-bromophenyl)-6-azaspiro[3.4]octane-6-carbonyl)pyrazin-2(1H)-one]: the “mPTP Rat liver pIC50*” value in the assay with mPTP [1] is below 4.52. For the same molecule, the “mPTP Rat brain pIC50” value in the assay with mPTP [2] was below 4.52.
Turning to `O=C(c1cc(O)no1)N1CC(c2ccc(F)cc2F)C2(CCC2)C1` (single isomer, unassigned) [Example 42b, (8-(2,4-difluorophenyl)-6-azaspiro[3.4]octan-6-yl)(3-hydroxyisoxazol-5-yl)methanone], in the assay with mPTP [1], the “mPTP Rat liver pIC50*” value is reported as below 4.52. Also, the “mPTP Rat brain pIC50” value in the assay with mPTP [2] is below 4.52.
As to `O=C(c1noc(=O)[nH]1)N1CC(c2cccc(F)c2F)C2(CCC2)C1` (single isomer, unassigned) [Example 44a, 3-(8-(2,3-difluorophenyl)-6-azaspiro[3.4]octane-6-carbonyl)-1,2,4-oxadiazol-5(4H)-one], the “mPTP Rat liver pIC50*” value in the assay with mPTP [1] worked out at 5.63. The “mPTP Rat brain pIC50” value in the assay on mPTP [2] worked out at 7.33.
The corresponding values for `O=C(c1cc(O)no1)N1CC(c2ccc(F)cc2F)C2(CCC2)C1` (single isomer, unassigned) [Example 42a, (8-(2,4-difluorophenyl)-6-azaspiro[3.4]octan-6-yl)(3-hydroxyisoxazol-5-yl)methanone] are 6.26 and 6.99.
Taken in the same sequence, the figures for `O=C(c1cncc(=O)[nH]1)N1CC(c2ccccc2)C2(CCCC2)C1` (single isomer, unassigned) [Example 17a, 6-[4-Phenyl-2-azaspiro[4.4]nonane-2-carbonyl]-1H-pyrazin-2-one] were 6 and 6.63.
Taken in the same sequence, the figures for `O=C(c1nccc(=O)[nH]1)N1CC(c2ccccc2)C2(CC(F)C2)C1` (single isomer, unassigned) [Example 25a, 2-(2-fluoro-8-phenyl-6-azaspiro[3.4]octane-6-carbonyl)pyrimidin-4(3H)-one] were 6.33 and 6.88.
As to `O=C(c1noc(=O)[nH]1)N1CC(c2ccccc2)C2(CCC2)C1` (single isomer, unassigned) [Example 34a, 3-(8-phenyl-6-azaspiro[3.4]octane-6-carbonyl)-1,2,4-oxadiazol-5(4H)-one], the “mPTP Rat liver pIC50*” value in the assay on mPTP [1] amounted to 5.57. The “mPTP Rat brain pIC50” value with mPTP [2] is listed as 7.37.
As for `O=C(c1cc(O)no1)N1CC(c2cccc(F)c2F)C2(CCC2)C1` (single isomer, unassigned) [Example 39b, (8-(2,3-difluorophenyl)-6-azaspiro[3.4]octan-6-yl)(3-hydroxyisoxazol-5-yl)methanone], the “mPTP Rat liver pIC50*” value with mPTP [1] is below 4.52. Moreover, the “mPTP Rat brain pIC50” value in the assay on mPTP [2] is on record as below 4.52.
On to `O=C(c1ccnc(=O)[nH]1)N1CC(c2ccccc2)C2(CCC2)C1` (single isomer, unassigned) [Example 27a, 6-(8-phenyl-6-azaspiro[3.4]octane-6-carbonyl)pyrimidin-2(1H)-one], for which the “mPTP Rat liver pIC50*” value in the assay with mPTP [1] came out at 6.11. Besides, in the assay on mPTP [2], the “mPTP Rat brain pIC50” value is reported as 6.34.
With `O=C(c1cncc(=O)[nH]1)N1CC(c2ccccc2Cl)C2(CCC2)C1` (single isomer, unassigned) [Example 30a, 6-(8-(2-chlorophenyl)-6-azaspiro[3.4]octane-6-carbonyl)pyrazin-2(1H)-one], the “mPTP Rat liver pIC50*” value in the assay with mPTP [1] is 5.28. Also, the “mPTP Rat brain pIC50” value with mPTP [2] is recorded as 6.92.
For `O=C(c1cc(O)no1)N1CC(c2ccc(F)c(F)c2)C2(CCC2)C1` (single isomer, unassigned) [Example 46b, (8-(3,4-difluorophenyl)-6-azaspiro[3.4]octan-6-yl)(3-hydroxyisoxazol-5-yl)methanone], the “mPTP Rat liver pIC50*” value with mPTP [1] is on record as below 4.52. Besides, in the assay with mPTP [2], the “mPTP Rat brain pIC50” value is 7.03.
In the case of `O=C(c1cc(O)ccn1)N1CC(c2ccccc2)C2(CCC2)C1` (centres unmarked) [Example 3, (4-hydroxypyridin-2-yl)(8-phenyl-6-azaspiro[3.4]octan-6-yl)methanone], in the assay on mPTP [1], the “mPTP Rat liver pIC50*” value amounted to 5.14.
Same read-out and setting: with `CC1CN(C(=O)c2cncc(=O)[nH]2)CC1c1ccccc1` (centres unmarked) [Example 13, 6-(3-methyl-4-phenylpyrrolidine-1-carbonyl)pyrazin-2(1H)-one] the figure was 4.55; with `O=C(c1cncc(=O)[nH]1)N1CC2(CCC2)C1c1ccccc1` (centres unmarked) [Example 12, 6-(1-phenyl-2-azaspiro[3.3]heptane-2-carbonyl)pyrazin-2(1H)-one], below 4.52.
As to `O=C(c1cncc(O)c1)N1CC(c2ccccc2)C2(CCC2)C1` (single isomer, unassigned) [Example 1c, (5-hydroxypyridin-3-yl)(8-phenyl-6-azaspiro[3.4]octan-6-yl)methanone], the “mPTP Rat liver pIC50*” value in the assay on mPTP [1] is reported as below 4.52.
Still for that read-out and setting: with `O=C(c1cnn[nH]1)N1CC(c2ccccc2)C2(CCC2)C1` (single isomer, unassigned) [Example 14b, 8-phenyl-6-(3H-1,2,3-triazole-4-carbonyl)-6-azaspiro[3.4]octane] the figure was below 4.52; with `Cn1nc(C(=O)N2CC(c3ccccc3)C3(CCC3)C2)[nH]c1=O` (centres unmarked) [Example 5a, 2-methyl-5-(8-phenyl-6-azaspiro[3.4]octane-6-carbonyl)-2,4-dihydro-3H-1,2,4-triazol-3-one], 5.04.
Regarding `O=C(c1noc(=O)[nH]1)N1CC(c2cccc(F)c2)C2(CCC2)C1` (single isomer, unassigned) [Example 49b, 3-(8-(3-fluorophenyl)-6-azaspiro[3.4]octane-6-carbonyl)-1,2,4-oxadiazol-5(4H)-one], the “mPTP Rat brain pIC50” value in the assay on mPTP [2] was below 4.52.
